Counter-ions that a name gives are not always drawn. Like-named read-outs stand apart in the source and are kept apart here.
Tested on: P. falciparum infected erythrocytes
Assay: P. falciparum growth inhibition assay ([3H]hypoxanthine incorporation)
Format: cell-based, Plasmodium falciparum
Protocol: P. falciparum Growth Inhibition Assay.
The sensitivity of P. falciparum infected erythrocytes to the compound was determined in duplicate using the [3H]hypoxanthine incorporation method with an inoculum of 0.5% parasitemia (ring stage) and 2% hematocrit. The parasites were grown in RPMI 1640, 25 mM HEPES and supplemented with 5% Albumax. Plates are incubated at 37° C., 5% CO2, 5% O2, 90% N2. After 24 h of incubation, [3H]hypoxanthine is added and plates are incubated for another 24 h. After that period, plates are harvested on a glass fiber filter using a TOMTEC Cell harvester 96. Filters are dried and melt on scintillator sheets and the bound radioactivity is quantified by use of a Wallac Microbeta Trilux (Model 1450 LS—Perkin Elmer). IC50s are determined using Grafit 7 program (Grafit program; Erithacus Software, Horley, Surrey, United Kingdom).
Each example compound was tested generally in accordance with the above-mentioned assay and the PfIC50 value for each compound is reported in the Table below and according to the following: […]

[1] = Plasmodium falciparum, Erythrocyte, [3H]hypoxanthine incorporation, 0.5% parasitemia, 2% hematocrit, 48 h, read-out: PfIC50 Media
[2] = Plasmodium falciparum, Erythrocyte, read-out: average PfIC50
[3] = [3H]hypoxanthine incorporation, 0.5% parasitemia, 2% hematocrit, 48 h, read-out: PfIC50 Media

## O=C(c1ccc(OC[C@H](O)Cn2cnnn2)cc1)N1CC[C@H](c2ccc(F)cc2)C1 [Example 5, ((R)-3-(4-Fluorophenyl)pyrrolidin-1-yl)(4-((R)-2-hydroxy-3-(1H-tetrazol-1-yl)propoxy)phenyl)methanone]
[1]
  IC50: < 0.1 µM
[2]
  IC50: ≤ 0.05 µM

## O=C(c1ccc(OC[C@H](O)Cn2cncn2)cc1)N1CC[C@H](c2ccc(Cl)cc2)C1 [Example 30, ((R)-3-(4-chlorophenyl)pyrrolidin-1-yl) (4-((R)-2-hydroxy-3-(1H-1,2,4-triazol-1-yl)propoxy)phenyl)methanone]
[1]
  IC50: < 0.1 µM

## N[C@@H](COc1ccc(C(=O)N2CC[C@H](c3ccc(Cl)cc3)C2)cc1)Cn1cnnn1 [Example 47, (4-((R)-2-amino-3-(1H-tetrazol-1-yl)propoxy)phenyl)((R)-3-(4-chlorophenyl)pyrrolidin-1-yl)methanone]
[1]
  IC50: < 0.1 µM
Plasmodium falciparum, Erythrocyte, hydrochloride salt of the example, same assay, read-out: PfIC50 Media (uM), (HCl)
  IC50: < 0.1 µM

## O=C(c1ccc(OCC(F)(F)Cn2cnnn2)cc1)N1CC[C@H](c2ccc(F)cc2)C1 [Example 4, (R)-(4-(2,2-Difluoro-3-(1H-tetrazol-1-yl)propoxy)phenyl)(3-(4-fluorophenyl)-pyrrolidin-1-yl)methanone]
[1]
  IC50: < 0.1 µM
[2]
  IC50: ≤ 0.05 µM

## O=C(c1ccc(OC[C@H](O)Cn2cncn2)cc1)N1CC[C@H](c2ccc(F)cc2)C1 [Example 15, ((R)-3-(4-fluorophenyl)pyrrolidin-1-yl)(4-((R)-2-hydroxy-3-(1H-1,2,4-triazol-1-yl)propoxy)phenyl)methanone]
[1]
  IC50: < 0.1 µM
[2]
  IC50: ≤ 0.05 µM

## CC(C)(COc1ccc(C(=O)N2CC[C@H](c3ccc(F)cc3)C2)cc1)Cn1cnnn1 [Example 2, (R)-(4-(2,2-Dimethyl-3-(1H-tetrazol-1-yl)propoxy)phenyl)(3-(4-fluorophenyl)pyrrolidin-1-yl)methanone]
[1]
  IC50: 0.5 to 1 µM

## Cn1cc(CC(O)COc2ccc(C(=O)N3CC[C@H](c4ccc(F)cc4)C3)cc2)cn1 (mixture of isomers) [Example 37, ((R)-3-(4-Fluorophenyl)pyrrolidin-1-yl)(4-(2-hydroxy-3-(1-methyl-1H-pyrazol-4-yl)propoxy)phenyl)methanone]
[1]
  IC50: 1 to 5 µM

## O=C(c1ccc(OC[C@H](O)Cn2ccnn2)cc1)N1CC[C@H](c2ccc(F)cc2)C1 [Example 17, ((R)-3-(4-fluorophenyl)pyrrolidin-1-yl)(4-((R)-2-hydroxy-3-(1H-1,2,3-triazol-1-yl)propoxy)phenyl)methanone]
[1]
  IC50: < 0.1 µM
[2]
  IC50: ≤ 0.05 µM

## O=C(c1ccc(OC[C@H](O)Cn2ncnn2)cc1)N1CCC(c2cccc(F)c2)C1 (single isomer, unassigned) [Example 41a]
[2]
  IC50: ≤ 0.05 µM
[3]
  IC50: < 0.1 µM

## CC(O)(COc1ccc(C(=O)N2CC[C@H](c3ccc(F)cc3)C2)cc1)Cn1cnnn1 (single isomer, unassigned) [Example 10a]
[1]
  IC50: 1 to 5 µM

## N[C@@H](COc1ccc(C(=O)N2CC[C@H](c3ccc(F)cc3)C2)cc1)Cn1cncn1 [Example 52, (4-((R)-2-amino-3-(1H-1,2,4-triazol-1-yl)propoxy)phenyl)((R)-3-(4-fluorophenyl)pyrrolidin-1-yl)methanone, Hydrochloride]
[1]
  IC50: 0.1 to 0.5 µM

## O=C(c1ccc(OC[C@H](O)Cn2ccnn2)cc1)N1CC[C@H](c2ccc(Cl)cc2)C1 [Example 32, ((R)-3-(4-chlorophenyl)pyrrolidin-1-yl)(4-((R)-2-hydroxy-3-(1H-1,2,3-triazol-1-yl)propoxy)phenyl)methanone]
[1]
  IC50: < 0.1 µM
[2]
  IC50: ≤ 0.05 µM

## O=C(c1ccc(OC[C@H](O)Cn2ncnn2)cc1F)N1CC[C@H](c2ccc(Cl)cc2)C1 [Example 34, ((R)-3-(4-chlorophenyl)pyrrolidin-1-yl) (2-fluoro-4-((R)-2-hydroxy-3-(2H-tetrazol-2-yl)propoxy)phenyl)methanone]
[1]
  IC50: < 0.1 µM

## O=C(c1ccc(OC[C@H](O)Cn2ncnn2)cc1F)N1CC[C@H](c2ccc(F)cc2)C1 [Example 27, (2-fluoro-4-((R)-2-hydroxy-3-(2H-tetrazol-2-yl)propoxy)phenyl)((R)-3-(4-fluorophenyl)pyrrolidin-1-yl)methanone]
[1]
  IC50: < 0.1 µM
[2]
  IC50: ≤ 0.05 µM

## COc1ccc(C2CCN(C(=O)c3ccc(OC[C@H](O)Cn4ncnn4)cc3)C2)cc1 (single isomer, unassigned) [Example 44b]
[3]
  IC50: 0.5 to 1 µM

## O=C(c1ccc(OC[C@H](O)Cn2ncnn2)cc1)N1CC[C@H](c2ccc(F)cc2)C1 [Example 7, ((R)-3-(4-Fluorophenyl)pyrrolidin-1-yl)(4-((R)-2-hydroxy-3-(2H-tetrazol-2-yl)propoxy)phenyl)methanone]
[1]
  IC50: < 0.1 µM
[2]
  IC50: ≤ 0.05 µM

## CC(COc1ccc(C(=O)N2CC[C@H](c3ccc(F)cc3)C2)cc1)Cn1cnnn1 (single isomer, unassigned) [Example 1b]
[3]
  IC50: < 0.1 µM

## Cn1nnc(C[C@@H](O)COc2ccc(C(=O)N3CC[C@H](c4ccc(F)cc4)C3)cc2)n1 [Example 23, ((R)-3-(4-fluorophenyl)pyrrolidin-1-yl)(4-((R)-2-hydroxy-3-(2-methyl-2H-tetrazol-5-yl)propoxy)phenyl)methanone]
[1]
  IC50: < 0.1 µM

## Cc1nnnn1C[C@@H](O)COc1ccc(C(=O)N2CC[C@H](c3ccc(F)cc3)C2)cc1 [Example 21, ((R)-3-(4-fluorophenyl)pyrrolidin-1-yl)(4-((R)-2-hydroxy-3-(5-methyl-1H-tetrazol-1-yl)propoxy)phenyl)methanone]
[1]
  IC50: 0.5 to 1 µM

## O=C(c1ccc(OC[C@H](O)Cn2nccn2)cc1)N1CC[C@H](c2ccc(F)cc2)C1 [Example 16, ((R)-3-(4-fluorophenyl)pyrrolidin-1-yl)(4-((R)-2-hydroxy-3-(2H-1,2,3-triazol-2-yl)propoxy)phenyl)methanone]
[1]
  IC50: < 0.1 µM
[2]
  IC50: ≤ 0.05 µM

## O=C(c1ccc(OC[C@H](O)Cn2ncnn2)cc1)N1CCC(c2ccc(F)cc2F)C1 (single isomer, unassigned) [Example 42a]
[1]
  IC50: < 0.1 µM
[2]
  IC50: ≤ 0.05 µM

## N#Cc1ccc(C2CCN(C(=O)c3ccc(OC[C@H](O)Cn4ncnn4)cc3)C2)cc1 (single isomer, unassigned) [Example 43a]
[3]
  IC50: 0.1 to 0.5 µM

## N[C@@H](COc1ccc(C(=O)N2CC[C@H](c3ccc(Cl)cc3)C2)cc1)Cn1ncnn1 [Example 48, (4-((R)-2-amino-3-(2H-tetrazol-2-yl)propoxy)phenyl)((R)-3-(4-chlorophenyl)pyrrolidin-1-yl)methanone]
[1]
  IC50: < 0.1 µM
[2]
  IC50: ≤ 0.05 µM

## O=C(c1ccc(OC[C@H](O)Cn2ncnn2)cc1)N1CC[C@H](c2ccc(Cl)cc2)C1 [Example 29, ((R)-3-(4-chlorophenyl)pyrrolidin-1-yl)(4-((R)-2-hydroxy-3-(2H-tetrazol-2-yl)propoxy)phenyl)methanone]
[1]
  IC50: < 0.1 µM
[2]
  IC50: ≤ 0.05 µM

## N[C@@H](COc1ccc(C(=O)N2CC[C@H](c3ccc(F)cc3)C2)cc1)Cn1nccn1 [Example 53, (4-((R)-2-amino-3-(2H-1,2,3-triazol-2-yl)propoxy)phenyl)((R)-3-(4-fluorophenyl)pyrrolidin-1-yl)methanone, Hydrochloride]
[1]
  IC50: < 0.1 µM

## O=C(c1ccc(OC[C@H](O)Cn2cnnn2)cc1)N1CC[C@H](c2ccc(Cl)cc2)C1 [Example 28, ((R)-3-(4-chlorophenyl)pyrrolidin-1-yl)(4-((R)-2-hydroxy-3-(1H-tetrazol-1-yl)propoxy)phenyl)methanone]
[1]
  IC50: < 0.1 µM

## O=C(c1ccc(OC[C@@H](O)Cn2cnnn2)cc1)N1CC[C@H](c2ccc(F)cc2)C1 [Example 6, ((R)-3-(4-Fluorophenyl)pyrrolidin-1-yl)(4-((S)-2-hydroxy-3-(1H-tetrazol-1-yl)propoxy)phenyl)methanone]
[1]
  IC50: 0.1 to 0.5 µM

## O=C(c1ccc(OC[C@H](O)Cn2cnnn2)cc1F)N1CC[C@H](c2ccc(Cl)cc2)C1 [Example 33, ((R)-3-(4-chlorophenyl)pyrrolidin-1-yl) (2-fluoro-4-((R)-2-hydroxy-3-(1H-tetrazol-1-yl)propoxy)phenyl)methanone]
[1]
  IC50: 0.1 to 0.5 µM

## CC(O)(COc1ccc(C(=O)N2CC[C@H](c3ccc(F)cc3)C2)cc1)Cn1ncnn1 (stereo partly drawn) [Example 9b, ((R)-3-(4-Fluorophenyl)pyrrolidin-1-yl)(4-(2-hydroxy-2-methyl-3-(2H-tetrazol-2-yl)propoxy)phenyl)methanone]
[3]
  IC50: 0.1 to 0.5 µM

## Cn1nnnc1C[C@@H](O)COc1ccc(C(=O)N2CC[C@H](c3ccc(F)cc3)C2)cc1 [Example 24, ((R)-3-(4-fluorophenyl)pyrrolidin-1-yl)(4-((R)-2-hydroxy-3-(1-methyl-1H-tetrazol-5-yl)propoxy)phenyl)methanone]
[1]
  IC50: 0.1 to 0.5 µM

## O=C(c1ccc(OC[C@H](O)Cn2ncnn2)cc1)N1CCC(c2ccccc2F)C1 (single isomer, unassigned) [Example 40b]
[3]
  IC50: 0.1 to 0.5 µM

## N[C@@H](COc1ccc(C(=O)N2CC[C@H](c3ccc(F)cc3)C2)c(F)c1)Cn1ncnn1 [Example 56, (4-((R)-2-amino-3-(2H-tetrazol-2-yl)propoxy)-2-fluorophenyl)((R)-3-(4-fluorophenyl)pyrrolidin-1-yl)methanone, Hydrochloride]
[1]
  IC50: 0.1 to 0.5 µM

## O=C(c1ccc(OC[C@H](F)Cn2ncnn2)cc1)N1CC[C@H](c2ccc(F)cc2)C1 [Example 11]
[1]
  IC50: < 0.1 µM
[2]
  IC50: ≤ 0.05 µM

## COc1ccc(C2CCN(C(=O)c3ccc(OC[C@H](O)Cn4ncnn4)cc3)C2)cc1 (single isomer, unassigned) [Example 44a]
[3]
  IC50: < 0.1 µM
